Test results: patent US8906925B2, “Pyrido[4,3-B]indoles containing rigid moieties” (Medivation Technologies, Inc., priority 2008, dated 2014)

Tests used:
[1] = test system: rat mixed cortical cultures; assay: Neurite outgrowth in rat mixed cortical cultures; assay type: cell-based; details: 50 nM, 48 h, vs vehicle
Description: Cortical mixed cultures are prepared from E18 Wistar rat embryos. The cortices are dissected out and the tissue was cut to small pieces. The cells are separated by 15-min. incubation with DNase and papain. The cells are collected by centrifugation (1500 rpm, 5 min.). The tissue is triturated with a pipette and the cells are plated using the micro-islet protocol (20 000 cells in […] medium) on poly-L-lysine coated 48 wells, in MEM supplemented with 2 mM glutamine, […] gentamicin, 10% heat-inactivated fetal bovine serum (FBS-HI) and 10% heat-inactivated horse serum (HS-HI). After the cells had attached to the well, 250 μl medium is added to the wells. […] BDNF levels in the conditioned media are determined with a BDNF ELISA using the manufacturers (Promega, BDNF Emax® ImmunoAssay System, catalog number: G7610) instructions.
The cultures are fixed with 4% formaldehyde in 0.01 M PBS for 30 min. and washed once with PBS. […] The immunopositive cells are visualized by a fluorescence microscope equipped with appropriate filter set, and documented by a high resolution image capturing. The number of cells per field (4 field per well) are counted, and the neurite outgrowth was quantified using Image Pro Plus software. […]
Compounds of the invention were evaluated on their effect on neurite outgrowth in rat mixed neuronal cultures. […]

[2] = target: T1, human recombinant serotonin 5-HT1B receptor (Homo sapiens, UniProt P28222); assay: 5-HT1B radioligand binding competition assay ([3H]5-CT, CHO-K1 membranes); details: 5 μM, in duplicate, average
T1 construct: expressed in transfected cells; host or cells: CHO-K1 cell line, membrane extracts
Description: To determine the binding activity at the human recombinant serotonin 5-HT1B receptor of compounds of the invention, CHO-K1 cell line expressing the human 5-HT1B recombinant receptor was amplified to prepare membranes used for the radioligand binding assay throughout the study. Radioligand binding competition on 5-HT1B was performed by adding successively in the wells of a 96 well plate (Master Block, Greiner, 786201). […] The plate was incubated 60 min at 25° C. in a water bath and then filtered over GF/B filters (Perkin Elmer, 6005177, presoaked in 0.5% PE1 for 2 h at room temperature) with a Filtration unit (Perkin Elmer). The filters were washed 3× with 0.5 mL of ice-cold washing buffer (50 mM Tris pH 7.4). 50 μL Microscint 20 (Packard) was added and the plate was incubated 15 min on an orbital shaker and then counted with a TopCount™ for 1 min/well.
The reference value thus obtained for the test was compared to a historical value obtained from the same receptor and used to validate the experimental session. […] For replicate determinations, the maximum variability tolerated in the test was of +/−20% around the average of the replicates.
Compounds were tested for binding activity in the radioligand binding competition assay on human 5-HT1B receptor, at one concentration […], in duplicate. Dose-response data from test compounds were analyzed with XLfit (IDBS) software using nonlinear regression applied to a sigmoidal dose-response model.
Dose-response data was analyzed with XLfit (IDBS) software using non-linear regression applied to a sigmoidal dose-response model.

T1 sequence (P28222 whole entry): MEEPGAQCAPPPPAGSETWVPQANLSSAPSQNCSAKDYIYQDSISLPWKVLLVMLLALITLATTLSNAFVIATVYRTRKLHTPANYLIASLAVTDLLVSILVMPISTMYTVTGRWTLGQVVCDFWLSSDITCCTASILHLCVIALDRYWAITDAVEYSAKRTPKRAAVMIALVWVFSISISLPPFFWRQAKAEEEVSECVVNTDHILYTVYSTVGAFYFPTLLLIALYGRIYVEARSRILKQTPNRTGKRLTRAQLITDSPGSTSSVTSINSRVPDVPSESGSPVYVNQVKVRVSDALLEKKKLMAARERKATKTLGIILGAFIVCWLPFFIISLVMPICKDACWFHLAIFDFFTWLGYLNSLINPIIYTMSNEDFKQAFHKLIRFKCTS

| Structure (SMILES) | Mean Process+Branch Number (number of branched processes) [1] | 5-HT1B (5 μM) % Binding relative to bound radioligand [2] [%] |
| --- | --- | --- |
| C/C(=C\n1c2c(c3cc(Cl)ccc31)CN(C)CC2)c1ccc(F)cc1 [Compound 83, (E)-8-chloro-5-(2-(4-fluorophenyl)prop-1-enyl)-2,3,4,5-tetrahydro-2-methyl-1H-pyrido[4,3-b]indole] | significantly increased | – |
| COc1ccc(C(C)(O)Cn2c3c(c4cc(C)ccc42)CN(C)CC3)cc1 (centres unmarked) [Compound 174, 1-(2,8-dimethyl-3,4-dihydro-1H-pyrido[4,3-b]indol-5(2H)-yl)-2-(4-methoxyphenyl)propan-2-ol] | – | 16 |
